In one series the test system is UGT. Briefly: p-nitrophenol glucuronidation, mouse hepatic microsomes. Conditions: 12.5 µM. The series is classed as in vitro ADME. As for the experimental part:
(§1) Microsomal preparation was as previously outlined. Individual livers were placed in beakers containing 1.15% KCl. All the procedures were carried out at 0–4 °C. The liver samples were minced and homogenised in buffer A (0.1 M Tris, 0.1 M potassium chloride, 1 mM EDTA, and 20 μM butylated hydroxytoluene, at pH = 7.4) using the Teflon-glass homogeniser (5–6 vertical passes). The samples were centrifuged for 20 min at 10,000× g. The supernatant was then transferred into another set of centrifuge tubes and spun for 60 min at 100,000× g. The pellet was resuspended in Buffer B (0.1 M potassium pyrophosphate, 1 mM EDTA, and 20 μM butylated hydroxytoluene, at pH = 7.4), homogenised and recentrifuged for 60 min at 100,000× g. Finally, the pellet was homogenised in 1–2 mL of Buffer C (10 mM Tris-HCl, 1 mM EDTA, and 4% glycerol (v/v)) and stored at […] until used. The protein concentration of the microsomes was determined using the Bicinchoninic acid (BCA) method.
(§2) The rate of p-nitrophenol glucuronidation was determined as previously reported. In short, the incubation mixture (500 µL in total) contained; 100 µL of 1 mg/mL microsomes, 50 µL of 1 M Tris-HCl (pH = 7.4), 20 µL of 0.25% (v/v) Triton-X 100, 50 µL of 50 mM MgCl2, 130 µL of double distilled water, 50 µL of 5 mM p-nitrophenol, 50 µL of the test compound, and 50 µL of uridine 5′-diphosphoglucuronic acid trisodium salt (UDPGA). The blank tubes had all components except UDPGA and microsomes; instead, 150 µL of 0.1 M phosphate buffer was added to equal the volume as the reaction mixture. The reaction mixture and the blank were incubated at 37 °C for 2 min. Then, 50 µL of 30 mM UDPGA was added to initiate the reaction which proceeded at 37 °C for 30 min (optimised incubation time). The reaction was stopped using 1 mL of 5% trichloroacetic acid (TCA). The tubes were centrifuged at 1800 g for 10 min and then 1 mL of supernatant was added to 250 µL of 2 M sodium hydroxide (NaOH). The absorbance was read at 405 nm. The sample reading was subtracted from the blank absorbance and divided by the extinction coefficient of p-nitrophenol ([…]) and the light path of the spectrophotometer (1 cm). The glucuronidation activities are expressed in µmol/mg/min and are the mean ± SEM of 3 independent experiments conducted in duplicate.
As for `CCCCCC12CCC(C(=O)O)(CC1)CC2` [4-pentylbicyclo[2.2.2]octane-1-carboxylic acid], the p-nitrophenol glucuronidation activity is given as 2.41 ± 0.06 µmol/mg/min and the “p-nitrophenol glucuronidation, % of Control” value was found to be 98.73 ± 3.51%.
Consider `O=C(O)C1C2C=CC(C2)C1C(=O)O` (stereo not drawn) [5-norbornen-2-endo-3-exo-dicarboxylic acid], for which the p-nitrophenol glucuronidation activity was 2.23 ± 0.09 µmol/mg/min and the “p-nitrophenol glucuronidation, % of Control” value is on record as 107.16 ± 4.97%.

The same series, now with this note: 25 µM.
`CCCCCC12CCC(C(=O)O)(CC1)CC2` [4-pentylbicyclo[2.2.2]octane-1-carboxylic acid]: the p-nitrophenol glucuronidation activity came to 2.21 ± 0.14 µmol/mg/min and the “p-nitrophenol glucuronidation, % of Control” value turned out to be 90.15 ± 2.18 %.
With `O=C(O)C1C2C=CC(C2)C1C(=O)O` (stereo not drawn) [5-norbornen-2-endo-3-exo-dicarboxylic acid], the p-nitrophenol glucuronidation activity is 2.23 ± 0.10 µmol/mg/min and the “p-nitrophenol glucuronidation, % of Control” value worked out at 107.42 ± 3.63%.

Still in this series, the particulars now being: 2.5 mM, positive control.
As for `OC(Cn1cncn1)(Cn1cncn1)c1ccc(F)cc1F` [fluconazole, reference compound], the “decrease of hepatic p-nitrophenol glucuronidation” value was found to be 20 percent control.

A further series relates to UGT. Briefly: p-nitrophenol glucuronidation, possum hepatic microsomes. The series is classed as in vitro ADME, possum (Trichosurus vulpecula). The note with it: 12.5 µM. The procedure:
as §1, §2
For `CCCCCC12CCC(C(=O)O)(CC1)CC2` [4-pentylbicyclo[2.2.2]octane-1-carboxylic acid], the p-nitrophenol glucuronidation activity came out at 3.80 ± 0.27 µmol/mg/min and the “p-nitrophenol glucuronidation, % of Control” value is on record as 98.44 ± 1.05%.
In the case of `O=C(O)C1C2C=CC(C2)C1C(=O)O` (stereo not drawn) [5-norbornen-2-endo-3-exo-dicarboxylic acid], the p-nitrophenol glucuronidation activity worked out at 3.90 ± 0.23 µmol/mg/min and the “p-nitrophenol glucuronidation, % of Control” value is given as 100.53 ± 2.09%.

The series is the same for the next values; noted with them: 25 µM.
`CCCCCC12CCC(C(=O)O)(CC1)CC2` [4-pentylbicyclo[2.2.2]octane-1-carboxylic acid]: the p-nitrophenol glucuronidation activity came to 3.96 ± 0.17 µmol/mg/min and the “p-nitrophenol glucuronidation, % of Control” value was determined as 102.71 ± 1.91%.
The matching figures for `O=C(O)C1C2C=CC(C2)C1C(=O)O` (stereo not drawn) [5-norbornen-2-endo-3-exo-dicarboxylic acid]: 3.91 ± 0.20 µmol/mg/min and 100.86 ± 1.90%.

The subject of another series is UGT. The series can be described thus: p-nitrophenol glucuronidation, rat hepatic microsomes. The series is classed as in vitro ADME. The note with it: 12.5 µM. The procedure:
as §1, §2
In the case of `CCCCCC12CCC(C(=O)O)(CC1)CC2` [4-pentylbicyclo[2.2.2]octane-1-carboxylic acid], the p-nitrophenol glucuronidation activity worked out at 2.88 ± 0.13 µmol/mg/min and the “p-nitrophenol glucuronidation, % of Control” value is 103.95 ± 3.65%.
The matching figures for `O=C(O)C1C2C=CC(C2)C1C(=O)O` (stereo not drawn) [5-norbornen-2-endo-3-exo-dicarboxylic acid]: 2.85 ± 0.16 µmol/mg/min and 96.42 ± 1.23%.

Still in this series, the particulars now being: 25 µM.
For `CCCCCC12CCC(C(=O)O)(CC1)CC2` [4-pentylbicyclo[2.2.2]octane-1-carboxylic acid], the p-nitrophenol glucuronidation activity is given as 2.82 ± 0.07 µmol/mg/min and the “p-nitrophenol glucuronidation, % of Control” value is 101.89 ± 3.31%.
As for `O=C(O)C1C2C=CC(C2)C1C(=O)O` (stereo not drawn) [5-norbornen-2-endo-3-exo-dicarboxylic acid], the p-nitrophenol glucuronidation activity is 2.92 ± 0.19 µmol/mg/min and the “p-nitrophenol glucuronidation, % of Control” value came out at 98.52 ± 2.14%.

For the next series, the system named is CYP3A. Briefly: CYP3A catalytic activity (erythromycin-N-demethylation), mouse hepatic microsomes. The series is classed as in vitro ADME. Conditions: 12.5 µM. As for the experimental part: as §1
(§3) CYP3A catalytic activity was determined using the erythromycin-N-demethylation activity assay as described previously. The reaction mixture (final volume of 1 mL and final protein concentration of 1 mg) contained 500 µL of microsomes in 0.1 M phosphate buffer (pH = 7.4), 400 µL of erythromycin buffer (0.45 mM), and 50 µL of the test compound was pre-warmed at 37 °C for 2 min. The reaction was initiated with 50 µL of 2.5 mM […] and incubated at 37 °C for 30 min (optimised incubation time). The reaction was stopped with the addition of 330 µL of 15% zinc sulphate. Tubes were vortexed and left for 5 min (at room temperature) and then 330 µL of saturated barium hydroxide was added. Tubes were further vortexed and left for 5 min (at room temperature). Tubes were then centrifuged at 1800 g for 10 min. To 830 µL of the supernatant, 330 µL of Nash reagent (30% (w/v) ammonium acetate, 0.4% (v/v) acetyl acetone) was added and further incubated at 60 °C for 30 min. The blank tube contained 330 µL of Nash reagent and 830 µL of Milli-Q-water. The tubes were centrifuged again at 1800× g for 10 min and the absorbance was read at 415 nm. Results presented are the mean ± SEM of 3 independent experiments conducted in duplicate.
`CCCCCC12CCC(C(=O)O)(CC1)CC2` [4-pentylbicyclo[2.2.2]octane-1-carboxylic acid] had a CYP3A catalytic activity of 0.61 ± 0.04 nmol/mg/min.
Turning to `O=C(O)C1C2C=CC(C2)C1C(=O)O` (stereo not drawn) [5-norbornen-2-endo-3-exo-dicarboxylic acid], the CYP3A catalytic activity is 0.73 ± 0.04 nmol/mg/min and the “CYP3A catalytic activity, % of Control” value is recorded as 96.48 ± 0.72%.

Still in this series, the particulars now being: 25 µM.
`CCCCCC12CCC(C(=O)O)(CC1)CC2` [4-pentylbicyclo[2.2.2]octane-1-carboxylic acid] returned a CYP3A catalytic activity of 0.67 ± 0.01 nmol/mg/min.
Regarding `O=C(O)C1C2C=CC(C2)C1C(=O)O` (stereo not drawn) [5-norbornen-2-endo-3-exo-dicarboxylic acid], the CYP3A catalytic activity worked out at 0.77 ± 0.03 nmol/mg/min and the “CYP3A catalytic activity, % of Control” value is on record as 101.88 ± 0.75%.

The series is the same for the next values; noted with them: liver microsomes, pH 7.4, probe erythromycin, 12.5 µM, read-out: CYP3A catalytic activity, % of Control.
As to `CCCCCC12CCC(C(=O)O)(CC1)CC2` [4-pentylbicyclo[2.2.2]octane-1-carboxylic acid], the activity at 30 min, 12.5 µM is 96.3 ± 1.91%.

Still in this series, the particulars now being: liver microsomes, pH 7.4, probe erythromycin, 25 µM, read-out: CYP3A catalytic activity, % of Control.
Take `CCCCCC12CCC(C(=O)O)(CC1)CC2` [4-pentylbicyclo[2.2.2]octane-1-carboxylic acid]: the activity at 30 min, 25 µM came out at 106 ± 2.97%.

Another series has as its system CYP3A. Briefly: CYP3A catalytic activity (erythromycin-N-demethylation), possum hepatic microsomes. The series is classed as in vitro ADME, possum (Trichosurus vulpecula). The note with it: 12.5 µM. The procedure:
as §1, §3
`CCCCCC12CCC(C(=O)O)(CC1)CC2` [4-pentylbicyclo[2.2.2]octane-1-carboxylic acid] displayed a CYP3A catalytic activity of 0.40 ± 0.05 nmol/mg/min.
`O=C(O)C1C2C=CC(C2)C1C(=O)O` (stereo not drawn) [5-norbornen-2-endo-3-exo-dicarboxylic acid]: the CYP3A catalytic activity is recorded as 0.39 ± 0.03 nmol/mg/min and the “CYP3A catalytic activity, % of Control” value was found to be 98.90 ± 0.73%.

Staying with this series, now noted: 25 µM.
In turn, `CCCCCC12CCC(C(=O)O)(CC1)CC2` [4-pentylbicyclo[2.2.2]octane-1-carboxylic acid] returned a CYP3A catalytic activity of 0.40 ± 0.02 nmol/mg/min.
As to `O=C(O)C1C2C=CC(C2)C1C(=O)O` (stereo not drawn) [5-norbornen-2-endo-3-exo-dicarboxylic acid], the CYP3A catalytic activity is 0.38 ± 0.02 nmol/mg/min and the “CYP3A catalytic activity, % of Control” value is listed as 95.23 ± 3.85%.

The series is the same for the next values; noted with them: possum (Trichosurus vulpecula), liver microsomes, pH 7.4, probe erythromycin, 12.5 µM, read-out: CYP3A catalytic activity, % of Control.
For the compound `CCCCCC12CCC(C(=O)O)(CC1)CC2` [4-pentylbicyclo[2.2.2]octane-1-carboxylic acid], the activity at 30 min, 12.5 µM is 109 ± 3.58%.

Still in this series, the particulars now being: possum (Trichosurus vulpecula), liver microsomes, pH 7.4, probe erythromycin, 25 µM, read-out: CYP3A catalytic activity, % of Control.
On to `CCCCCC12CCC(C(=O)O)(CC1)CC2` [4-pentylbicyclo[2.2.2]octane-1-carboxylic acid], for which the activity at 30 min, 25 µM was determined as 111 ± 7.26%.

The next series relates to CYP3A. The series can be described thus: CYP3A catalytic activity (erythromycin-N-demethylation), rat hepatic microsomes. The series is classed as in vitro ADME. Conditions: 12.5 µM. The procedure: as §1, §3
With `CCCCCC12CCC(C(=O)O)(CC1)CC2` [4-pentylbicyclo[2.2.2]octane-1-carboxylic acid], the CYP3A catalytic activity is on record as 0.56 ± 0.05 nmol/mg/min.
In the case of `O=C(O)C1C2C=CC(C2)C1C(=O)O` (stereo not drawn) [5-norbornen-2-endo-3-exo-dicarboxylic acid], the CYP3A catalytic activity was found to be 0.65 ± 0.10 nmol/mg/min and the “CYP3A catalytic activity, % of Control” value is recorded as 107.52 ± 3.84%.

Still in this series, the particulars now being: 25 µM.
In turn, `CCCCCC12CCC(C(=O)O)(CC1)CC2` [4-pentylbicyclo[2.2.2]octane-1-carboxylic acid] gave a CYP3A catalytic activity of 0.55 ± 0.06 nmol/mg/min.
For `O=C(O)C1C2C=CC(C2)C1C(=O)O` (stereo not drawn) [5-norbornen-2-endo-3-exo-dicarboxylic acid], the CYP3A catalytic activity came out at 0.64 ± 0.09 nmol/mg/min and the “CYP3A catalytic activity, % of Control” value stood at 105.30 ± 2.08%.

Still in this series, the particulars now being: liver microsomes, pH 7.4, probe erythromycin, 12.5 µM, read-out: CYP3A catalytic activity, % of Control.
For `CCCCCC12CCC(C(=O)O)(CC1)CC2` [4-pentylbicyclo[2.2.2]octane-1-carboxylic acid], the activity at 30 min, 12.5 µM was 105 ± 3.3%.

Staying with this series, now noted: liver microsomes, pH 7.4, probe erythromycin, 25 µM, read-out: CYP3A catalytic activity, % of Control.
Consider `CCCCCC12CCC(C(=O)O)(CC1)CC2` [4-pentylbicyclo[2.2.2]octane-1-carboxylic acid], for which the activity at 30 min, 25 µM came to 102 ± 2.42%.

These data come from article PMC8698377, “In Vitro Hepatic Assessment of Cineole and Its Derivatives in Common Brushtail Possums (Trichosurus vulpecula) and Rodents” (Biology, 2021).
